Assay results as given in ChEMBL document CHEMBL4828744, “Design, synthesis and biological evaluation of pyridinylmethylenepiperidine derivatives as potent 5-HT1F receptor agonists for migraine therapy” (Eur J Med Chem, 2021).
The source made the active and inactive calls. No cut-off for these calls is given here.

Assays:
Rattus norvegicus [1] = test: Antimigraine activity against electrical stimulation of trigeminal ganglion migraine Wistar rat model assessed as reduction in dural plasma protein extravasation at 0.01 ug/kg, po measured after 45 mins by confocal fluorescence microscopic analysis; type: functional, organism-based; settings: dose 0.01 µg/kg
[2] = Cmax in Sprague-Dawley rat at 5 mg/kg, ig measured for 24 hrs by LC-MS/MS analysis; type: ADME, organism-based; set-up: route intragastric, time 24 hrs, dose 5 mg/kg; settings: in vivo, po
[3] = Cmax in Sprague-Dawley rat at 1 mg/kg, iv measured for 24 hrs by LC-MS/MS analysis; type: ADME, organism-based; set-up: route intravenous, dose 1 mg/kg, time 24 hrs; settings: in vivo
[4] = Bioavailability in Sprague-Dawley rat at 5 mg/kg, ig measured for 24 hrs by LC-MS/MS analysis; type: ADME, organism-based; settings: in vivo, po
[5] = AUC(0 to t) in Sprague-Dawley rat at 5 mg/kg, ig measured for 24 hrs by LC-MS/MS analysis; type: ADME, organism-based; set-up: time 24 hrs, dose 5 mg/kg; settings: in vivo, po
[6] = Clearance in Sprague-Dawley rat at 1 mg/kg, iv measured for 24 hrs by LC-MS/MS analysis; type: ADME, organism-based; settings: in vivo
[7] = Half life in Sprague-Dawley rat at 5 mg/kg, ig measured for 24 hrs by LC-MS/MS analysis; type: ADME, organism-based; settings: in vivo, po
[8] = Toxicity in NewZealand rabbit Saphenous vein rings assessed as induction of vasoconstriction at 0.01 to 100 uM; type: tissue-based, Oryctolagus cuniculus; settings: dose 0.01-100 µM
Rattus norvegicus [9] = test: Antimigraine activity against electrical stimulation of trigeminal ganglion migraine Wistar rat model assessed as reduction in c-Fos-positive cells at 10 ug/kg, po measured after 60 mins by confocal fluorescence microscopic analysis; type: functional, organism-based; settings: dose 10.0 µg/kg
[10] = Half life in Sprague-Dawley rat at 1 mg/kg, iv measured for 24 hrs by LC-MS/MS analysis; type: ADME, organism-based; settings: in vivo
[11] = Volume of distribution at steady state in Sprague-Dawley rat at 1 mg/kg, iv measured for 24 hrs by LC-MS/MS analysis; type: ADME, organism-based; settings: in vivo, read-out: Vdss
[12] = AUC(0 to t) in Sprague-Dawley rat at 1 mg/kg, iv measured for 24 hrs by LC-MS/MS analysis; type: ADME, organism-based; set-up: time 24 hrs, dose 1 mg/kg; settings: in vivo
[13] = biological target: T1, 5-hydroxytryptamine receptor 1F (Homo sapiens) (UniProt P30939); test: Potency index, ratio of lasmiditan EC50 to test compound EC50 for agonist activity at 5HT1F receptor (unknown origin) expressed in HEK293 cells measured after 60 mins by Fluo-4AM dye based FLIPR assay; type: functional, cell-based
T1 sequence (whole entry): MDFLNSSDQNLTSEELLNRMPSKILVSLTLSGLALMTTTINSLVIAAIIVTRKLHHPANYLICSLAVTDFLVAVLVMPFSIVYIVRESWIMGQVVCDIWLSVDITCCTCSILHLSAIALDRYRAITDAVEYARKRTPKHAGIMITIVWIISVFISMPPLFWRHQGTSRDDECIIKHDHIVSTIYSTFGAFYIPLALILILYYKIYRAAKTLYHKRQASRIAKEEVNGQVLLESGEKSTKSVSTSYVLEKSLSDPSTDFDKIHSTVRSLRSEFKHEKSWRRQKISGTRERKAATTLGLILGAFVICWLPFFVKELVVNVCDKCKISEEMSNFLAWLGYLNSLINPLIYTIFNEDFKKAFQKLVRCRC

[14] = biological target: T2, 5-hydroxytryptamine receptor 1F (Homo sapiens, UniProt P30939); test: Agonist activity at 5HT1F receptor (unknown origin) expressed in HEK293 cells measured after 60 mins by Fluo-4AM dye based FLIPR assay; type: functional, cell-based; settings: read-out: IC50 (the source's name)
T2 sequence (P30939 whole entry): T1 sequence (whole entry)

[15] = Toxicity in NewZealand rabbit Saphenous vein rings assessed as induction of vasoconstriction at 1 to 100 uM; type: tissue-based, Oryctolagus cuniculus; settings: dose 1-100 µM

| SMILES | Activity (Rattus norvegicus [1]) | Cmax [2] [ng/mL] | Cmax [3] [ng/mL] | bioavailability [4] [%] | AUC(0-t) at 24 h [5] [ng·h/mL] | clearance [6] [mL/min/kg] | half-life [7] [h] | Activity [8] | Activity (Rattus norvegicus [9]) | half-life [10] [h] | Vd [11] [L/kg] | AUC(0-t) at 24 h [12] [ng·h/mL] | Ratio EC50 [13] | EC50 [14] [nM] | Activity [15] |
| --- | --- | --- | --- | --- | --- | --- | --- | --- | --- | --- | --- | --- | --- | --- | --- |
| CN1CCC(C(=O)c2cccc(NC(=O)c3c(F)cc(F)cc3F)n2)CC1 [LASMIDITAN] | Active | 90.9 | 28.1 | 63.2 | 386 | 127 | 3.38 | Non-Toxic | Active | 3.12 | 32.2 | 105 | – | – | – |
| CN1CCC(=C(F)c2cccc(NC(=O)c3ccc(F)cc3F)n2)CC1 | – | 9.71 | 74.4 | 12.9 | 44.6 | 229 | 0.824 | – | – | 1.05 | 17.7 | 70.4 | 3 | 4.67 | – |
| O=C(Nc1cccc(C(F)=C2CCN(C3CC3)CC2)n1)c1c(F)cc(F)cc1F | – | – | – | – | – | – | – | – | – | – | – | – | – | 570 | – |
| CN1CCC(=C(F)c2cccc(NC(=O)c3ccc(Cl)cc3F)n2)CC1 | – | 23.2 | 72.2 | 26.2 | 105 | 178 | 1.68 | – | – | 1.42 | 20.1 | 90.5 | 3 | 23.4 | – |
| O=C(Nc1cccc(C(F)=C2CCN(C(F)F)CC2)n1)c1c(F)cc(F)cc1F | – | – | – | – | – | – | – | – | – | – | – | – | – | 813 | – |
| CN1CCC(=C(F)c2cccc(NC(=O)c3ccc(F)cn3)n2)CC1 | – | 34.7 | 94.9 | 23.7 | 121 | 159 | 1.24 | – | – | 0.924 | 11 | 103 | – | 24.3 | – |
| CN1CCC(=C(F)c2cccc(NC(=O)c3ccc(Cl)cc3)n2)CC1 | – | 35.7 | 61 | 39 | 151 | 180 | 2.41 | – | – | 1.6 | 20.3 | 89.4 | 3 | 29.3 | – |
| O=C(Nc1cccc(C(F)=C2CCN(C(F)(F)F)CC2)n1)c1c(F)cc(F)cc1F | – | – | – | – | – | – | – | – | – | – | – | – | – | > 10000 | – |
| CNS(=O)(=O)Cc1ccc2[nH]cc(CCN(C)C)c2c1 [SUMATRIPTAN] | – | – | – | – | – | – | – | – | – | – | – | – | – | – | Toxic |
| CN1CCC(=C(F)c2cccc(NC(=O)c3ccc(Cl)cn3)n2)CC1 | – | – | – | – | – | – | – | – | – | – | – | – | – | 161 | – |
| CN1CCC(=C(F)c2cccc(NC(=O)c3ccc(F)cc3)n2)CC1 | – | 34.1 | 75.3 | 32.5 | 157 | 156 | 1.41 | – | – | 1.37 | 17.3 | 104 | 3 | 6.36 | – |
| CCN1CCC(=C(F)c2cccc(NC(=O)c3c(F)cc(F)cc3F)n2)CC1 | – | – | – | – | – | – | – | – | – | – | – | – | – | 178 | – |
